Experimental data from US20040029910A1, “Protoberberine derivatives which inhibit activity of the mitogen-activated protein kinase” (priority 2000, published 2004).

What was measured:
[1] = system: knock-out mutant of wis1 (JM544); test: Growth (cell number) of wis1 knock-out mutant; format: cell-based, Schizosaccharomyces pombe; settings: for inhibition of the activity of Wis1 kinase, concluded from effects on knock-out mutants: conclusion from growth of knock-out mutants; for cell number: Table 5, wis1 knock-out, miconazole 3 ug/mL
Experimental: To investigate the effect of protoberberine derivatives on the growth of cells, the cells of each strain were cultured in rich medium YE^AU to exponential phase(5×10^7 cells/mL). […]

[2] = target: T1, Wis1 kinase (Schizosaccharomyces pombe, UniProt P33886); test: Wis1 kinase activity and autophosphorylation ([γ-32P]ATP, SDS-PAGE, FIG. 2); format: biochemical; settings: purified GST-Wis1, kinase reaction 30° C. 30 minutes, autophosphorylation also measured
T1 construct: The genes wis1 and spc1 were cloned into the pRep1 vector containing nmt1 promoter; made in house; host or cells: Schizosaccharomyces pombe KGY246 (pRep1 vector, nmt1 promoter)
T1 sequence (P33886 1-605): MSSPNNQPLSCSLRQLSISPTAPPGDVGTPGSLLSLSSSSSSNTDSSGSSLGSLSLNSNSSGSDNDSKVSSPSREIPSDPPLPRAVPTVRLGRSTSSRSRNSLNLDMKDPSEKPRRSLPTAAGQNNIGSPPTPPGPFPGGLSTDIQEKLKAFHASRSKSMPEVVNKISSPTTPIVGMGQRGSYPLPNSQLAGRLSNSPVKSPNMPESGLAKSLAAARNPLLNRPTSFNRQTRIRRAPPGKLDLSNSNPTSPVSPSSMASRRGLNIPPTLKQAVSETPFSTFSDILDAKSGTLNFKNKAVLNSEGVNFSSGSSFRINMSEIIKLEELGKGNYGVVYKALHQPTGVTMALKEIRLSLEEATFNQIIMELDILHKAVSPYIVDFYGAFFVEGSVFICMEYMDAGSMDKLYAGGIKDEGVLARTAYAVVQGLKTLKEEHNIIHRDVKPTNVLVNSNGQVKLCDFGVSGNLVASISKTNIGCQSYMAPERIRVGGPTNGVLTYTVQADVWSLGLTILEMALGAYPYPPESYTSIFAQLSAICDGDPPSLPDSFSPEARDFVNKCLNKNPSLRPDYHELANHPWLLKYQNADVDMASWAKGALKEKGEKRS
Experimental: The genes wis1 and spc1 were cloned into the pRep1 vector containing nmt1 promoter of which expression was inhibited by thiamin in the medium and able to tag GST. The KGY246 cells, wild type Schizosaccharomyces pombe cells were transformed with this plasmid. The expression of Wis1 and Spc1 kinase tagged with GST was induced by the cultivation of the transformed cells in MM^AU medium containing 0.4 mM thiamin followed by cultivation to exponential phase(5×10^6 cells) for about 20 hours in 100 mL of MM^AU medium in which thiamin was withdrawn. After osmotic shock(0.6M KCl) and oxidative stress were given to the cells expressing Wis1 and Spc1 tagged with GST for 25 minutes, cells were recovered at 4° C., washed with ice-cold PBS/NaF(50 mM)/NaN3(1 mM) buffer and HB buffer(25 mM HEPES, pH 7.5, 60 mM β-glycerophosphate, 15 mM EGTA, 0.1 mM Na vanadate, 0.1% triton and hydrolyzed using glass bead and bead beater purchased from Sigma. The supernatant of hydrolyzed cells was incubated with 100 mM NaCl for salting-out to remove unnecessary proteins. After the supernatant was incubated with 0.045 g/ml GST beads for 1.5 hours, proteins not bound to GST beads were removed. Purified Wis1 and Spc1 kinases were separated on 7% SDS-PAGE and the degree of purification was confirmed by western blotting using GST antibody.
Before Wis1 and Spc1 kinases purified in example 4 were analyzed, they were pre-incubated in analyzing buffer of kinase (50 mM Tris-Cl pH7.4, 20 mM MgCl2, 5 mM EGTA, 2 mM Na vanadate, 1 mM DTT). The kinase reaction was performed at 30° C. for 30 minutes in the presence of 1 mg/ml myelin basic protein(MBP), 1 mM ATP and 20 uCi of [γ-^32p]ATP and then terminated by adding SDS sample buffer and heating at 90° C. for 5 minutes. The reaction mixtures were separated on SDS-polyacrylamide gel electrophoresis. After fixation with 10% acetic acid: 10% methanol and drying, the gel was exposed on X-ray film. When Wis1 is activated by stimulus, it also activates autophosphorylation. Therefore, the degree of Wis1 autophosphorylation was also measured.

[3] = system: knock-out mutant of spc1 (KS1366); test: Growth (cell number) of spc1 knock-out mutant; format: cell-based, Schizosaccharomyces pombe; settings: Table 6, spc1 knock-out, miconazole 3 ug/mL
Experimental: To investigate the effect of protoberberine derivatives on the growth of cells, the cells of each strain were cultured in rich medium YE^AU to exponential phase(5×10^7 cells/mL). […] Then cell number was measured every 3 hours.

[4] = system: knock-out mutant of spm1 in Mhk1-Spm1 pathway (TZs69); test: Growth (cell number) of spm1 knock-out mutant; format: cell-based, Schizosaccharomyces pombe; settings: Table 4, spm1 knock-out, miconazole 3 ug/mL
Experimental: (§1) To investigate the effect of protoberberine derivatives on the growth of cells, the cells of each strain were cultured in rich medium YE^AU to exponential phase(5×10^7 cells/mL). These cells were transferred to YE^AU medium and cultured for 12 hours. Then cell number was measured every 3 hours.

[5] = system: knock-out mutant of byr2 in Ras-Byr2 pathway (SPSU); test: Growth (cell number) of byr2 knock-out mutant; format: cell-based, Schizosaccharomyces pombe; settings: Table 3, byr2 knock-out, miconazole 3 ug/mL
Experimental: as §1

`COc1ccc(Cc2c3[n+](cc4c(OC)c(OC)ccc24)CCc2cc4c(cc2-3)OCO4)cc1` [13-(4-methoxybenzyl)berberine chloride] was tested, and the “inhibition of the activity of Wis1 kinase, concluded from effects on knock-out mutants” value (“inhibition … on knock-out mutants” below) [1] was “inhibited” and the “inhibition of Wis1 kinase activity (in words)” value (“inhibition … (in words)” for short) [2] was “directly inhibited”.
For `COc1ccc2c(Cc3cccc(Cl)c3Cl)c3[n+](cc2c1OC)CCc1cc2c(cc1-3)OCO2.[Cl-]` [13-(2,3-dichlorobenzyl)berberine chloride], the “inhibition … on knock-out mutants” value [1] was “inhibited” and the “inhibition … (in words)” value [2] was “directly inhibited”.
In the case of `COc1ccc2c(Cc3ccccc3)c3[n+](cc2c1OC)CCc1cc2c(cc1-3)OCO2.[I-]` [13-benzylberberine iodide], the “inhibition … on knock-out mutants” value [1] is reported as “inhibited” and the “inhibition … (in words)” value [2] is reported as “directly inhibited”.
With `COc1ccc2c(Cc3ccc(C)cc3)c3[n+](cc2c1OC)CCc1cc2c(cc1-3)OCO2.[Cl-]` [13-(4-methylbenzyl)berberine chloride] the “inhibition … on knock-out mutants” value [1] was “inhibited” and the “inhibition … (in words)” value [2] was “directly inhibited”.
`COc1ccc2c(Cc3ccc(Cl)cc3)c3[n+](cc2c1OC)CCc1cc2c(cc1-3)OCO2.[I-]` [13-(4-chlorobenzyl)berberine iodide] was tested, and the “inhibition … on knock-out mutants” value [1] was “inhibited” and the “inhibition … (in words)” value [2] was “directly inhibited”.
With `COc1ccc2c(Cc3c(F)cccc3Cl)c3[n+](cc2c1OC)CCc1cc2c(cc1-3)OCO2` [13-(2-chloro-6-fluorobenzyl)berberine chloride] the “inhibition … on knock-out mutants” value [1] was “inhibited” and the “inhibition … (in words)” value [2] was “directly inhibited”.
For `COc1ccc2c(Cc3cccc(C(F)(F)F)c3)c3[n+](cc2c1OC)CCc1cc2c(cc1-3)OCO2.[Cl-]` [13-(3-trifluoromethylbenzyl)berberine chloride], the “inhibition … on knock-out mutants” value [1] was “inhibited” and the “inhibition … (in words)” value [2] was “directly inhibited”.
With `COc1ccc2c(Cc3c(F)c(F)c(F)c(F)c3F)c3[n+](cc2c1OC)CCc1cc2c(cc1-3)OCO2` [13-(2,3,4,5,6-pentafluorobenzyl)berberine chloride] the “inhibition … on knock-out mutants” value [1] was “inhibited” and the “inhibition … (in words)” value [2] was “directly inhibited”.
In the case of `COc1ccc2c(Cc3ccc(F)cc3C(F)(F)F)c3[n+](cc2c1OC)CCc1cc2c(cc1-3)OCO2.[Cl-]` [13-(4-fluoro-2-trifluoromethylbenzyl)berberine chloride], the “inhibition … on knock-out mutants” value [1] is reported as “inhibited” and the “inhibition … (in words)” value [2] is reported as “directly inhibited”.
Compound `Clc1ccc(COC(Cn2ccnc2)c2ccc(Cl)cc2Cl)c(Cl)c1` (stereo not shown) [miconazole, reference compound] has a cell number ([1]; time 12) of 35, a cell number ([1]; time 15) of 37 and a cell number ([1]; time 18) of 25. For the same compound, the cell number ([1]; time 21) was 19, the cell number ([1]; time 24) was 12 and the cell number ([3]; time 12) was 15. It also gave a cell number ([3]; time 15) of 9, a cell number ([3]; time 18) of 12 and a cell number ([3]; time 21) of 18. It also gave a cell number ([3]; time 24) of 17, a cell number ([4]; time 12) of 28 and a cell number ([4]; time 15) of 27. It also gave a cell number ([4]; time 18) of 23, a cell number ([4]; time 21) of 34 and a cell number ([4]; time 24) of 26. It also gave a cell number ([5]; time 12) of 32, a cell number ([5]; time 15) of 19 and a cell number ([5]; time 18) of 31. For the same compound, the cell number ([5]; time 21) was 30 and the cell number ([5]; time 24) was 27.
`COc1ccc2c(Cc3ccc(C)cc3C)c3[n+](cc2c1OC)CCc1cc2c(cc1-3)OCO2.[Cl-]` [13-(2,4-dimethylbenzyl)berberine chloride] was tested, and the “inhibition … on knock-out mutants” value [1] was “inhibited” and the “inhibition … (in words)” value [2] was “directly inhibited”.
In the case of `COc1ccc2c(Cc3ccc(C)c([N+](=O)[O-])c3)c3[n+](cc2c1OC)CCc1cc2c(cc1-3)OCO2.[Cl-]` [13-(4-methyl-3-nitrobenzyl)berberine chloride], the “inhibition … on knock-out mutants” value [1] is reported as “inhibited” and the “inhibition … (in words)” value [2] is reported as “directly inhibited”.
In the case of `COc1ccc2c(Cc3c(F)c(F)c(C(F)(F)F)c(F)c3F)c3[n+](cc2c1OC)CCc1cc2c(cc1-3)OCO2.[Cl-]` [13-(2,3,5,6-tetrafluoro-4-trifluoromethylbenzyl)berberine chloride], the “inhibition … on knock-out mutants” value [1] is reported as “inhibited” and the “inhibition … (in words)” value [2] is reported as “directly inhibited”.
With `COc1ccc2c(Cc3cccc(Br)c3)c3[n+](cc2c1OC)CCc1cc2c(cc1-3)OCO2` [13-(3-bromobenzyl)berberine iodide] the “inhibition … on knock-out mutants” value [1] was “inhibited” and the “inhibition … (in words)” value [2] was “directly inhibited”.
In the case of `COc1ccc2c(Cc3ccc(OC(F)(F)F)cc3)c3[n+](cc2c1OC)CCc1cc2c(cc1-3)OCO2.[Cl-]` [13-(4-trifluoromethoxybenzyl)berberine chloride], the “inhibition … on knock-out mutants” value [1] is reported as “inhibited” and the “inhibition … (in words)” value [2] is reported as “directly inhibited”.
With `COC(=O)c1ccc(Cc2c3[n+](cc4c(OC)c(OC)ccc24)CCc2cc4c(cc2-3)OCO4)cc1` [13-(4-methoxycarbonylbenzyl)berberine chloride] the “inhibition … on knock-out mutants” value [1] was “inhibited” and the “inhibition … (in words)” value [2] was “directly inhibited”.
With `COc1ccc2c(Cc3ccc(C(C)C)cc3)c3[n+](cc2c1OC)CCc1cc2c(cc1-3)OCO2.[Cl-]` [13-(4-i-propylbenzyl)berberine chloride] the “inhibition … on knock-out mutants” value [1] was “inhibited” and the “inhibition … (in words)” value [2] was “directly inhibited”.
